Laboratory results reported in PMC12338828, “Evaluation of organotin (IV) dithiocarbamate compounds as potential anti-leukemia agents towards CCRF-CEM (CCL-119) cell line: Cytotoxic, apoptotic, cell cycle and genotoxic study” (PLOS One, 2025).
Where “and” joins values, the source holds several entries; their conditions need not be identical. Equal values may be shown once.

Experiments:
[1] = test system: CCL-119 cells; experiment: Mode of cell death, Annexin V-FITC/PI staining (flow cytometry); assay type: cell-based; conditions: for Early Apoptosis (Q4) / Late Apoptosis (Q2) / Necrosis (Q1) / Viable (Q3): 24 hours at IC50, single replicates n1-n3; for cell death through apoptosis (population of cells): 24 hours, treated at IC50, early + late apoptosis
Procedure: The mode of cell death can be observed through the Annexin V-FITC/PI staining (BD, USA). The result of this test is either apoptosis or necrosis. […] VCR was used as a positive control, while cells without any treatment were used as a negative control. Then, the plate was incubated for 24 hours. After the incubation, the cell suspension in each well was collected into different Eppendorf tubes. The tubes were then centrifuged for 5 minutes at 1500 rpm at 4°C. After the centrifuge, the supernatant in the tubes was removed, and the cell pellets were washed twice with cold PBS. Then, centrifuge the tubes again and remove the supernatant. Next, 100 µL of Annexin V binding buffer was resuspended in each tube, and 5 µL Annexin V-FITC was pipetted into the tube to stain the cells for 15 minutes at room temperature, dark. After that, 5 µL of propidium iodide was piped into the tube for 5 minutes. The staining process is done in dark conditions. Lastly, the sample was transferred into the Falcon tube, and each tube was resuspended in 400 µL of Annexin V binding buffer. The sample was analyzed using a flow cytometer (BD FACS Canto II) within one hour.

[2] = test system: CCL-119 cells; experiment: Alkaline comet assay; assay type: cell-based; conditions: for DNA damage class / Tail moment / percentage of DNA intensity in the tail / % DNA intensity: 1 hour of exposure
Procedure: VCR was used as a positive control, and untreated cells were used as a negative control in this assay. The cells were incubated for 1 hour. After incubation, cells in each well were transferred to the Eppendorf tube to centrifuge for 5 minutes at 4°C by using a refrigerated microcentrifuge. The supernatant was removed, and the samples were washed with 1 mL of cold PBS. This process was repeated 3 times. After completion of the process, the supernatant was removed, and the pellet was left for a while on top of the ice while preparing the slide.
About 140 µL of normal melting agar (NMA) is pipetted on top of the fully frosted slide, and a cover slip is put on the agar for 5 minutes or until the agar fully solidifies. After that, the cover slip was removed, and 80 µL of low melting agar (LMA) was added to an Eppendorf tube containing the pellet of cells. The suspension was then transferred into a frosted slide with NMA agar. The cover slip was then put back on top of the frosted slide for 10 minutes or until dry. Next, the slide was transferred into a Coplin jar that contained lysis buffer solution and Triton X-100. The slides were then incubated at 4°C overnight. The slides were arranged on an electrophoresis tank filled with electrophoresis buffer for 20 minutes. Electrophoresis is done for another 20 minutes at 25 V with 300 mA. The slides were washed with a neutralization buffer solution 3 times at a 5-minute time interval. Finally, 30 µL of ethidium bromide (50 µg/mL) was added, and the slide was observed by using fluorescence microscopy (OLYMPUS BX51TR). CometScore software is used to analyze the DNA damage of the cells. The comet assay was performed under alkaline conditions (pH > 13) to detect both single- and double-strand DNA breaks.

[3] = test system: CCL-119 cells; experiment: Cell cycle analysis (PI/RNase staining); assay type: cell-based; conditions: for cells in G0/G1 phase / cells in G2/M phase / cells in S phase: 24 hours at IC50, single replicates n1-n3
Procedure: The cells were cultured and seeded in a 6-well plate at 1 x 10^6 cells/mL. VCR was used as a positive control, and untreated cells were used as a negative control in this assay. The concentration of the compounds and VCR was followed by IC50 values that were taken from the MTT assay.
After 24 hours of incubation, all cells in the plate were transferred to the Eppendorf tube and centrifuged for 5 minutes at 4°C at 1500 rpm. After centrifuging, the supernatant was removed, and cells were washed with 500 µL cold PBS three times. The pellet was fixed by using 70% ethanol overnight at −20°C. Next, the samples were stained with 500 µL of PI/RNase staining buffer and incubated for 15 minutes. The samples were then transferred into Falcon tubes. The data was recorded using a flow cytometer and analyzed using ModFit LT software.

[4] = test system: WIL2-NS cells; design: method as in Rasli et al. (2023); conditions: non-cancerous cells; 24 hours of exposure; graph referred to earlier paper; ref Rasli et al. (2023); cited from earlier work
[5] = test system: CCL-119 cells; experiment: MTT cytotoxicity assay; conditions: for cell viability at 0.31 µM / cell viability at 0.63 µM / cell viability at 1.25 µM / cell viability at 2.50 µM / cell viability at 5.00 µM / Selectivity Index (SI): 24 hours; for cell viability at 0.31 µM / cell viability at 0.63 µM / cell viability at 1.25 µM / cell viability at 2.50 µM / cell viability at 5.00 µM: single replicates n1-n3, untreated = 100.00; for cell viability at 2.50 µM: 2.5 µM; for Selectivity Index (SI): IC50 WIL2-NS / IC50 CCL-119; for IC50: read-out: IC50 (µM) CCL-119, 24 hours of exposure, mean ± SEM, n = 3
Procedure: The T-acute lymphoblastic leukemia cell line, CCRF-CEM (CCL-119™), and a non-cancerous cell, WIL2-NS (CRL-8155™), were purchased from the American Type Culture Collection (ATCC). Both are suspension types of cells and were cultured in Roswell Park Memorial Institute Medium 1640 (RPMI-1640) (Sigma-Aldrich), supplemented with 10% Fetal Bovine Serum (FBS) (Capricorn Scientific) and 1% penicillin-streptomycin (Nacalai Tesque) to obtain the complete growth medium and were incubated at 37 °C with a 5% CO2 incubator. Both suspension cells are used for tests when the cells’ passage becomes passage 3–10 (maximum).
All stock solutions of the organotin (IV) dithiocarbamate compounds were prepared at 10 mM and dissolved in dimethyl sulphoxide (DMSO) (ChemAR®). The stock solutions were stored at 4°C; fresh dilutions were made by adding the RPMI-1640 medium before the experiment. The dilution is carried out using the serial dilution method to obtain the desired concentrations, which are 5 µM, 2.5 µM, 1.25 µM, 0.63 µM, 0.32 µM, and 0.16 µM in this study. Vincristine (VCR) is used as a positive control in this study.
Both CCL-119 and WIL2-NS cells were seeded in a 96-well plate at a final concentration of 5 x 10^5 cells/well and treated with 5 µM, 2.5 µM, 1.25 µM, 0.63 µM, 0.32 µM, and 0.16 µM of organotin (IV) dithiocarbamate compound for 24 hours at 37°C with 5% CO2. VCR was used as a positive control in this study, while cells without treatment were used as a negative control. After 24 hours of exposure, 20 µL of MTT (Merck) salt solution was added into each well and incubated for another 4 hours. The plate was wrapped with aluminium foil as MTT salt is light sensitive. After 4 hours, the purple crystal formazan was formed. All the medium was removed carefully from each well, and 200 µL DMSO was added to each well to dissolve the purple formazan crystal. Then, the plates were incubated for an additional 15 minutes. The results were analyzed and recorded using an ELISA microplate reader at 570 nm. The data was then plotted into a graph, and IC50 values were determined.
The selectivity index (SI) is determined by dividing the cytotoxic activity (IC50 value) of each compound on a non-cancerous cell line (WIL2-NS) by the leukemia cell line (CCL-119). […] WIL2- NS cell lines were selected as the comparator because it is a non-cancerous human B lymphoblast cell line, which is like CCL-119 (T-lymphoblastic leukemia), derived from lymphocytes. This choice ensures that comparisons are made between biologically similar cell types, minimizing variability that could arise from differences in tissue origin or lineage.

CC(C)N(C(=S)[S][Sn]([S]C(=S)N(C(C)C)C(C)C)([c]1ccccc1)[c]1ccccc1)C(C)C [ODTC 1, diphenyltin (IV) diisopropyl dithiocarbamate]
Early Apoptosis (Q4) [1]: 45.2% and 37.2% and 40.2%
Late Apoptosis (Q2) [1]: 34.7% and 29.3%
Necrosis (Q1) [1]: 0.2% and 1% and 0.6%
Viable (Q3) [1]: 28.4% and 29.5% and 29.9%
cell death through apoptosis (population of cells) [1]: 77.6%
DNA damage / genotoxic effect (in words) [2]: highest genotoxic effects
DNA damage class [2]: class 3
Tail moment ([2]; mean ± SEM): 68.58 ± 3.31 A.U
percentage of DNA intensity in the tail ([2]; mean ± SEM): 27.50 ± 2.36%
% DNA intensity ([2]; single replicates n1-n3): 31.5757% and 23.3927% and 27.534%
Tail moment ([2]; single replicates n1-n3): 74.8179 A.U and 67.3969 A.U and 63.5391 A.U
cells in G0/G1 phase [3]: 44.44% and 52.78% and 46.11%
cells in G2/M phase [3]: 0.17% and 1.28% and 8.00%
cells in S phase [3]: 55.38% and 45.94% and 45.89%
Phases of Cell Cycle Arrest ([3]; 24 hours at IC50 concentrations): S phase
IC50 [4]: 1.39 ± 0.46 µM
cell viability at 0.31 µM [5]: 68.12% and 70.47% and 62.95%
cell viability at 0.63 µM [5]: 46.30% and 50.11% and 43.95%
cell viability at 1.25 µM [5]: 30.25% and 39.66% and 27.67%
cell viability at 2.50 µM [5]: 11.95% and 23.57% and 13.38%
cell viability at 5.00 µM [5]: 8.78% and 22.56% and 11.96%
Selectivity Index (SI) [5]: 2.48
IC50 [5]: 0.56 ± 0.04 µM

C=CCN(CC=C)C(=S)[S][Sn]([S]C(=S)N(CC=C)CC=C)([c]1ccccc1)[c]1ccccc1 [ODTC 2, diphenyltin (IV) diallyl dithiocarbamate]
Early Apoptosis (Q4) [1]: 36.1% and 39.2% and 31.1%
Late Apoptosis (Q2) [1]: 31.5% and 32.9% and 28.1%
Necrosis (Q1) [1]: 1% and 0.6%
Viable (Q3) [1]: 31.4% and 27% and 40.2%
cell death through apoptosis (population of cells) [1]: 66.3%
DNA damage / genotoxic effect (in words) [2]: caused detectable DNA damage
DNA damage class [2]: class 2
Tail moment ([2]; mean ± SEM): 6.83 ± 2.58 A.U
percentage of DNA intensity in the tail ([2]; mean ± SEM): 10.18 ± 0.89%
% DNA intensity ([2]; single replicates n1-n3): 9.179% and 9.419% and 11.9522%
Tail moment ([2]; single replicates n1-n3): 5.421 A.U and 3.237 A.U and 11.8306 A.U
cells in G0/G1 phase [3]: 51.19% and 55.53% and 53.01%
cells in G2/M phase [3]: 1.93% and 1.68% and 4.38%
cells in S phase [3]: 46.88% and 42.78% and 42.61%
IC50 [4]: 0.52 ± 0.14 µM
cell viability at 0.31 µM [5]: 49.85% and 27.71% and 26.10%
cell viability at 0.63 µM [5]: 26.34% and 15.19% and 17.94%
cell viability at 1.25 µM [5]: 29.61% and 16.46% and 16.39%
cell viability at 2.50 µM [5]: 28.76% and 19.14% and 15.77%
cell viability at 5.00 µM [5]: 31.88% and 17.53% and 10.93%
Selectivity Index (SI) [5]: 2.36
IC50 [5]: 0.22 ± 0.04 µM
